Values quoted from earlier work in patent US7935730B2, “Method of enhancing reproductive function of mammals by feeding of conjugated linoleic acids” (Cornell Research Foundation, Inc., priority 2006, dated 2011).

Legend:
young rodents = conditions: proposed
[1] = in vivo

Row | SMILES | feed efficiency and growth (young rodents) | effect on milk and body fat [1]
1 | CCCCCC/C=C/C=C\CCCCCCCC(=O)O [cis-9, trans-11 CLA] | enhance | no effect
2 | CCCCC/C=C\C=C\CCCCCCCCC(=O)O [trans-10, cis-12 CLA] | – | reduction
